For `Cc1ccc(NC(=N)NCc2ccc3c(c2)CN(C2CCC(=O)NC2=O)C3=O)cc1Cl.Cl` (stereo not drawn), which melting point is on record?
Its melting point is > 400 °C.

Which melting point does the source give for `CC(=O)Nc1ccc(NC(=O)NCc2ccc3c(c2)CN(C2CCC(=O)NC2=O)C3=O)cc1` (stereo not drawn) [Example 5.13, N-(4-{3-[2-(2,6-Dioxo-piperidin-3-yl)-1-oxo-2,3-dihydro-1H-isoindol-5-ylmethyl]-ureido}-phenyl)-acetamide] here?
Its melting point is 265 to 267 °C.

For `Cc1ccc(N/C(=N\C#N)NCc2ccc3c(c2)CN(C2CCC(=O)NC2=O)C3=O)cc1Cl` (stereo not drawn) [Example 5.30, N″-(3-Chloro-4-methyl-phenyl)-N′-[2-(2,6-dioxo-piperidin-3-yl)-1-oxo-2,3-dihydro-1H-isoindol-5-ylmethyl]-N-cyano-guanidine], which melting point is on record?
Its melting point is 325 to 327 °C.

Which melting point does the source give for `O=C1CCC(N2Cc3cc(CNC(=O)Nc4ccc(-c5ncc[nH]5)cc4)ccc3C2=O)C(=O)N1` (stereo not drawn) [Example 5.31, 1-[2-(2,6-Dioxo-piperidin-3-yl)-1-oxo-2,3-dihydro-1H-isoindol-5-ylmethyl]-3-[4-(1H-imidazol-2-yl)-phenyl]-urea] here?
The melting point was 190 to 192 °C.

With `O=C1CCC(N2Cc3cc(CNC(=O)Nc4ccc(Cl)c(-c5nc6ccccc6[nH]5)c4)ccc3C2=O)C(=O)N1` (stereo not drawn) [Example 5.32, 1-[3-(1H-Benzoimidazol-2-yl)-4-chloro-phenyl]-3-[2-(2,6-dioxo-piperidin-3-yl)-1-oxo-2,3-dihydro-1H-isoindol-5-ylmethyl]-urea] as the compound, how does the melting point read?
The melting point was 275 to 277 °C.

Which melting point does the source give for `NC(=O)[C@H]1CC[C@@H](NC(=O)NCc2ccc3c(c2)CN(C2CCC(=O)NC2=O)C3=O)CC1` (stereo partly drawn) [Example 5.43, 4-{3-[2-(2,6-Dioxo-piperidin-3-yl)-1-oxo-2,3-dihydro-1H-isoindol-5-ylmethyl]-ureido}-cyclohexanecarboxylic acid amide] here?
Its melting point is 195 to 197 °C.

Which melting point does the source give for `CC(C)(C)OC(=O)N1CCc2cc(NC(=O)NCc3ccc4c(c3)CN(C3CCC(=O)NC3=O)C4=O)ccc2C1` (stereo not drawn) [Example 5.46, 6-{3-[2-(2,6-Dioxo-piperidin-3-yl)-1-oxo-2,3-dihydro-1H-isoindol-5-ylmethyl]-ureido}-3,4-dihydro-1H-isoquinoline-2-carboxylic acid tert-butyl ester] here?
The melting point was 230 to 232 °C.

Which melting point does the source give for `CC(NC(=O)NCc1ccc2c(c1)CN(C1CCC(=O)NC1=O)C2=O)c1ccc(Cl)c(Cl)c1` (stereo not drawn) [Example 5.60, 1-[1-(3,4-Dichloro-phenyl)-ethyl]-3-[2-(2,6-dioxo-piperidin-3-yl)-1-oxo-2,3-dihydro-1H-isoindol-5-ylmethyl]-urea] here?
Its melting point is 200 to 202 °C.

For `COCCOCCOc1ccc(NC(=O)NCc2ccc3c(c2)CN(C2CCC(=O)NC2=O)C3=O)cc1Cl` (stereo not drawn) [Example 5.61, 1-(3-Chloro-4-(2-(2-methoxyethoxy)ethoxy)phenyl)-3-((2-(2,6-dioxopiperidin-3-yl)-1-oxoisoindolin-5-yl)methyl)urea], which melting point is on record?
The melting point was 188 to 190 °C.
